Measurements from ChEMBL document CHEMBL3639140, “Naphthyridine derivatives as inhibitors of hypoxia inducible factor (HIF) hydroxylase” (2014).

Biological target: Egl nine homolog 1 (Homo sapiens, UniProt Q9GZT9)
Assay: For example, a HIF peptide for use in the HIF-PH assay is [methoxycoumarin]-[…]-amide. HIF-PH, e.g., HIF-PH2 (EGLN1), can be expressed in, e.g., insect Hi5 cells, and partially purified, e.g., through a SP ion exchange chromatography column.
Type: cell-based, BTI-TN-5B1-4

Sequence of Egl nine homolog 1 (Q9GZT9 whole entry): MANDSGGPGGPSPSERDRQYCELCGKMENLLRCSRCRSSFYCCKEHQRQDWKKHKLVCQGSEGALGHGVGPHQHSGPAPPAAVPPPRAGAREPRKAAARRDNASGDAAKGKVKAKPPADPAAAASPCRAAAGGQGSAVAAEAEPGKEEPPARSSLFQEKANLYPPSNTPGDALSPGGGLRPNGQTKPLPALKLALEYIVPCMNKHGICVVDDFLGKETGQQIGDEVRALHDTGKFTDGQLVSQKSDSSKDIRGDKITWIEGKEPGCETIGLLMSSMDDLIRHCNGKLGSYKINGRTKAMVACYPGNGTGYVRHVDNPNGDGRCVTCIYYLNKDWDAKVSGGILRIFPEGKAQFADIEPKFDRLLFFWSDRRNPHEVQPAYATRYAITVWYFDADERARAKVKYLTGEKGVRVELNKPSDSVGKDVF

O=C(NCc1ccncc1)c1ncc2c(=O)n(Cc3ccccc3)ccc2c1O showed an IC50 of 190 nM.
